Experimental findings from patent publication US20210198277A1, “AMINE-SUBSTITUTED ARYL OR HETEROARYL COMPOUNDS” (Epizyme, Inc., priority 2016, published 2021) are described below.

The target in this assay is T1, EHMT2 (Homo sapiens, UniProt Q96KQ7).
T1 construct: host or cells: MDA-MB-231
T1 sequence (Q96KQ7 1-1210): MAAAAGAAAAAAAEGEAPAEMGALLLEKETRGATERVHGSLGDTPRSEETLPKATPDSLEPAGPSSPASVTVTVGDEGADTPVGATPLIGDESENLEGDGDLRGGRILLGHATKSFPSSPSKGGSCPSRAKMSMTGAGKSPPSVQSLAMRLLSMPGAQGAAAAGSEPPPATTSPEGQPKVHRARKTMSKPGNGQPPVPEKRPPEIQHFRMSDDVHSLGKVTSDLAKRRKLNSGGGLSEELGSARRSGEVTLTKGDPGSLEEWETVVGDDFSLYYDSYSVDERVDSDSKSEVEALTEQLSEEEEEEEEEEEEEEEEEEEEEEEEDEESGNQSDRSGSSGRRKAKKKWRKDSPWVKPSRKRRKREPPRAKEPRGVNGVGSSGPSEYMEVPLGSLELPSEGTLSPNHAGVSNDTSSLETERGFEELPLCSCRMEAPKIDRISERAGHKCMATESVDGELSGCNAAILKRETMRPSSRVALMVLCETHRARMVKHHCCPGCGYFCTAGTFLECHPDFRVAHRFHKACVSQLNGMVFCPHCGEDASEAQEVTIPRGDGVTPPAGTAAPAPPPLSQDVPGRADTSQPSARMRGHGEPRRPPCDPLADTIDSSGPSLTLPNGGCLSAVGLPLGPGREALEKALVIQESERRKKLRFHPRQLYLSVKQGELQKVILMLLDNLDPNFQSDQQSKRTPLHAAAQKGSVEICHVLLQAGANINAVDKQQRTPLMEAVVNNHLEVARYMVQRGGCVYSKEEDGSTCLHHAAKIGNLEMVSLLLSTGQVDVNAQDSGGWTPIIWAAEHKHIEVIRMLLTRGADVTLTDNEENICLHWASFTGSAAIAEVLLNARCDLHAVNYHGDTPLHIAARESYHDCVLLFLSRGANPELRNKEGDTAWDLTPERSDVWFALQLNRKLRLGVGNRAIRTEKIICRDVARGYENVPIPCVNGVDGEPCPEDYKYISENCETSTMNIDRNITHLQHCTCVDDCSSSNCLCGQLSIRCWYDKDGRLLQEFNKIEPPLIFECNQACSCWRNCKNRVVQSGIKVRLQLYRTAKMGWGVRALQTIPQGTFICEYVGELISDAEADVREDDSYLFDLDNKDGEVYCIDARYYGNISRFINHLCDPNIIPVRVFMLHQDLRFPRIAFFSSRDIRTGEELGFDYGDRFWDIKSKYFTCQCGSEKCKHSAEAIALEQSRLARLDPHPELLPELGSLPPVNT
Briefly: MDA-MB-231 H3K9me2 in-cell Western assay (EHMT2 ICW). It is filed as cell-based. The following applies: for IC50: Table III, MDA-MB-231 H3K9me2 in-cell Western, read-out: EHMT2 ICW (IC50 μM); for pIC50: Table VI, read-out: EHMT2 ICW IC50. The method in brief: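 Infrared read-out at 800 and 700 nm (H3K9me2 antibody vs DRAQ5 DNA stain) of fixed MDA-MB-231 cells after 48 h compound treatment at 37 °C. Well ratios were converted to percent inhibition, and IC50 was obtained by variable-slope nonlinear regression on triplicates.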

pIC50: −log10 of the molar value. Read-outs that look alike come from different tables or passages of the source.

Consider `CNc1cc(C)nc(Nc2ccc(OC)c(O[C@H]3C[C@H](N(C)C)C3)c2)n1` (single isomer, unassigned) [Compound 329, N^2-(3-((1r,3r)-3-(dimethylamino)cyclobutoxy)-4-methoxyphenyl)-N^4,6-dimethylpyrimidine-2,4-diamine], for which the IC50 is over 10 µM.
As to `COc1ccc(Nc2ccc3cnn(C)c3n2)cc1OCCCN1CCCC1` [Compound 257, N-(4-methoxy-3-(3-(pyrrolidin-1-yl)propoxy)phenyl)-1-methyl-1H-pyrazolo[3,4-b]pyridin-6-amine], the IC50 is over 10 µM.
Same read-out and setting: the value for `COc1ccc(Nc2cc3c(cn2)ncn3C)cc1OCCCN1CCCC1` [Compound 258, N-(4-methoxy-3-(3-(pyrrolidin-1-yl)propoxy)phenyl)-1-methyl-1H-imidazo[4,5-c]pyridin-6-amine] was over 10 µM; that for `COc1ccc(Nc2nccc(NCC3CCOCC3)n2)cc1OC1CCC2(CC1)CCN(C)C2` (stereo not shown) [Compound 259, N^2-(4-methoxy-3-((2-methyl-2-azaspiro[4.5]decan-8-yl)oxy)phenyl)-N^4-((tetrahydro-2H-pyran-4-yl)methyl)pyrimidine-2,4-diamine] was over 10 µM; that for `COc1ccc(Nc2nccc(NCC3CCOCC3)n2)cc1OC1CCC2(CC1)CN(C)C2` [Compound 260, N^2-(4-methoxy-3-((2-methyl-2-azaspiro[3.5]nonan-7-yl)oxy)phenyl)-N^4-((tetrahydro-2H-pyran-4-yl)methyl)pyrimidine-2,4-diamine] was over 10 µM.
On the same count and under the same terms, the value for `CNc1cnnc(Nc2cc(OCCCN3CCCC3)c(OC)cn2)c1` [Compound 322, N^3-(5-methoxy-4-(3-(pyrrolidin-1-yl)propoxy)pyridin-2-yl)-N^5-methylpyridazine-3,5-diamine] was 0.1 to 1 µM.
The same measure, in the same setting: with `CNc1cc(Nc2cc(OCCCN3CCCC3)c(OC)cn2)cnn1` [Compound 323, N^5-(5-methoxy-4-(3-(pyrrolidin-1-yl)propoxy)pyridin-2-yl)-N^3-methylpyridazine-3,5-diamine] the figure was over 10 µM.
With `CNc1cc(Nc2cc(OCCCN3CCCC3)c(OC)cn2)ncn1` [Compound 324, N^4-(5-methoxy-4-(3-(pyrrolidin-1-yl)propoxy)pyridin-2-yl)-N^6-methylpyrimidine-4,6-diamine], the IC50 is over 10 µM.
Same read-out and setting: the value for `CNc1cc(Nc2cc(OCCCN3CCCC3)c(OC)cn2)nc(C)n1` [Compound 325, N^4-(5-methoxy-4-(3-(pyrrolidin-1-yl)propoxy)pyridin-2-yl)-N^6,2-dimethylpyrimidine-4,6-diamine] was 1 to 10 µM.
As to `COc1cnc(Nc2nc(C)nc3[nH]ccc23)cc1OCCCN1CCCC1` [Compound 326, N-(5-methoxy-4-(3-(pyrrolidin-1-yl)propoxy)pyridin-2-yl)-2-methyl-7H-pyrrolo[2,3-d]pyrimidin-4-amine], the IC50 was 1 to 10 µM.
On to `CNc1nc(Nc2ccc(OC)c(OCCCN3CCCC3)c2)nc2c1CCC2` [Compound 328, N^2-(4-methoxy-3-(3-(pyrrolidin-1-yl)propoxy)phenyl)-N^4-methyl-6,7-dihydro-5H-cyclopenta[d]pyrimidine-2,4-diamine], for which the IC50 lay in the range of 1 to 10 µM.
As for `CNc1cc(C)nc(Nc2ccc(OC)c(OC[C@H]3C[C@H](N(C)C)C3)c2)n1` [Compound 330], the IC50 is over 10 µM.
Regarding `CNc1cc(C)nc(Nc2ccc(OC)c(O[C@H]3C[C@H](CN(C)C)C3)c2)n1` [Compound 331, N^2-(3-((1r,3r)-3-((dimethylamino)methyl)cyclobutoxy)-4-methoxyphenyl)-N^4,6-dimethylpyrimidine-2,4-diamine], the IC50 was over 10 µM.
Same read-out and setting: with `CNc1cc(C)nc(Nc2cnc(OC)c(OCCCN3CCCC3)c2)n1` [Compound 332, N^2-(6-methoxy-5-(3-(pyrrolidin-1-yl)propoxy)pyridin-3-yl)-N^4,6-dimethylpyrimidine-2,4-diamine] the figure was 0.1 to 1 µM; with `CCn1nc(Nc2nccc3[nH]ccc23)cc1COCCN1CCCC1` [Compound 333], over 10 µM; with `COc1cnc(Nc2ccnc3[nH]ccc23)cc1OCCCN1CCCC1` [Compound 335, N-(5-methoxy-4-(3-(pyrrolidin-1-yl)propoxy)pyridine-2-yl)-1H-pyrrolo[2,3-b]pyridin-4-amine], 1 to 10 µM.
With `COc1cnc(Nc2cc(C)nc3[nH]ccc23)cc1OCCCN1CCCC1` [Compound 336, N-(5-methoxy-4-(3-(pyrrolidin-1-yl)propoxy)pyridin-2-yl)-6-methyl-1H-pyrrolo[2,3-b]pyridin-4-amine], the IC50 fell in the range of 1 to 10 µM.
Consider `COc1ccc(Nc2nc(C)c(F)c(NC(C)C)n2)cc1OCCCN1CCCC1` [Compound 337], for which the IC50 is 1 to 10 µM.
Regarding `COc1ccc(Nc2nccc(-n3nc(C)cc3C)n2)cc1OCCCN1CCCC1` [Compound 338], the IC50 is over 10 µM.
Still for that read-out and setting: the value for `CNCc1cnc(Nc2ccc(OC)c(OCCCN3CCCC3)c2)nc1` [Compound 339] was over 10 µM; that for `COc1ccc(Nc2ccnc(NCC3CCN(C(C)=O)CC3)n2)cc1OCCCN1CCCC1` [Compound 340] was over 10 µM.
`COc1ccc(Nc2ccc3cnn(C)c3c2)cc1OCCCN1CCCC1` [Compound 341]: the IC50 is over 10 µM.
On to `COc1ccc(Nc2ccc3ncn(C)c3n2)cc1OCCCN1CCCC1` [Compound 342], for which the half-maximal inhibitory concentration (IC50) was over 10 µM.
On the same count and under the same terms, the value for `COc1ccc(Nc2ncc3ncn(C)c3n2)cc1OCCCN1CCCC1` [Compound 343] was over 10 µM.
`COc1ccc(Nc2cccc3ncnn23)cc1OCCCN1CCCC1` [Compound 344]: the IC50 was over 10 µM.
In the case of `COc1ccc(Nc2ccc3nn(C)cc3c2)cc1OCCCN1CCCC1` [Compound 345], the IC50 is over 10 µM.
With `COc1ccc(Nc2cccc3cn(C)nc23)cc1OCCCN1CCCC1` [Compound 346], the IC50 is over 10 µM.
For `COc1ccc(Nc2ccc3ncc(C)n3n2)cc1OCCCN1CCCC1` [Compound 347], the IC50 was over 10 µM.
As for `COc1ccc(Nc2nccc(-c3cnn(C)c3)n2)cc1OCCCN1CCCC1` [Compound 348], the IC50 is over 10 µM.
As for `COc1ccc(Nc2nccc(Nc3cccc(F)c3)n2)cc1OCCCN1CCCC1` [Compound 349], the IC50 lay in the range of 1 to 10 µM.
Regarding `COc1ccc(Nc2nccc(NCC3CCOCC3)n2)cc1NCCCN1CCCC1` [Compound 350], the IC50 lay in the range of 1 to 10 µM.
On to `COc1ccc(OCCCN2CCCC2)cc1Nc1nccc(NCC2CCOCC2)n1` [Compound 351], for which the IC50 was over 10 µM.
For the molecule `COc1ccc(NCCCN2CCCC2)cc1Nc1nccc(NCC2CCOCC2)n1` [Compound 352], the IC50 is over 10 µM.
Take `CNc1ccnc(Nc2ccc(OC)c(OCCCN3CC[C@@H](F)C3)c2)n1` [Compound 353]: the IC50 fell in the range of 1 to 10 µM.
As to `CNc1ccnc(Nc2ccc(OC)c(OCCCN3CC(F)C3)c2)n1` [Compound 354], the IC50 was in the range of 1 to 10 µM.
For `CNc1cc2nccn2c(Nc2cc(OCCCN3CCCC3)c(OC)cn2)n1` [Compound 611], the pIC50 was 5.00 to 6.00.
On to `CCN1CC(COc2cc(Nc3nc(C)cc4[nH]ccc34)ncc2OC)C1` [Compound 613], for which the pIC50 was 5.00 to 6.00.
Consider `CNc1cc(C)nc(Nc2cc(OCCCN3CCCC3)c3nc(C)cn3c2)n1` [Compound 616], for which the pIC50 was 5.00 to 6.00.
Regarding `CNc1cc(C)nc(Nc2cc(OCCCN3CCCC3)c3nccn3c2)n1` [Compound 618], the pIC50 was under 5.00.
As to `COc1cc2c(C3CCN(C)CC3)cc(C#N)nc2cc1OCCCN1CCCC1` [Compound 790], the pIC50 is 5.00 to 6.00.
